Measured values reported in PubChem BioAssay (NCI).
Values joined by “and” are separate entries in the source; they are usually repeats but may differ in a detail not shown here. Identical values can stand only once.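 Protocol summary: plate cells (96-well), add compound at 5 concentrations, incubate 48 h, interpolate endpoints linearly. Abbreviation: GI50, concentration required for 50% inhibition of growth. TGI: concentration producing complete growth inhibition.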 Where a SMILES comes first, the peptide text is derived from it. [ ]: non-standard residue; d: D form. The star is where a group is joined. ξ: configuration not given here. X3 = COc1ccc(C(N*)c2ccc(OC)cc2)cc1; NMeF = CN[C@@H](Cc1ccccc1)C(=O)O; NMeD = CN[C@@H](CC(=O)O)C(=O)O; NMeV = CN[C@H](C(=O)O)C(C)C; ξNMeV = CNC(C(=O)O)C(C)C; Boc = CC(C)(C)OC(=O)*; ξNMeA = CNC(C)C(=O)O; ξV = CC(C)C(N)C(=O)O

Legend:
Assay in all cases: inhibition of tumour cell growth, NCI panel, 48 h
[1] = test system: HOP-92 NSCLC
[2] = test system: MALME-3M melanoma
[3] = test system: BT-549 breast
[4] = test system: OVCAR-3 ovarian
[5] = test system: SNB-19 CNS
[6] = test system: OVCAR-5 ovarian
[7] = test system: HCT-15 colon
[8] = test system: OVCAR-4 ovarian
[9] = test system: RXF 393 renal
[10] = test system: UO-31 renal

## CC(=O)CC(OC(C)=O)C1=CCC2C(CC1C)OC(=O)C2C (stereo not drawn)
[1]
  TGI: > 100 µM
[2]
  TGI: > 100 µM
[3]
  TGI: > 100 µM
[4]
  TGI: > 100 µM
[5]
  TGI: > 100 µM
[6]
  TGI: > 100 µM
[7]
  TGI: > 100 µM
[8]
  TGI: > 100 µM
[9]
  TGI: > 100 µM

## O=C(/C(=C/c1ccc([N+](=O)[O-])cc1)SCc1ccccc1)c1ccc(Cl)cc1
[1]
  GI50: 2.28 µM
  TGI: 9.46 µM
[2]
  GI50: 3.12 µM
  TGI: 11.7 µM
[3]
  GI50: 2.4 µM
  TGI: 6.39 µM
[4]
  GI50: 1.91 µM
  TGI: 4.29 µM
[5]
  GI50: 3.59 µM
  TGI: 15.6 µM
[6]
  GI50: 2.98 µM
  TGI: 11.9 µM
[7]
  GI50: 2.14 µM
  TGI: 5.41 µM
[10]
  GI50: 1.5 µM
  TGI: 3.3 µM
[8]
  GI50: 3.24 µM
  TGI: 13.3 µM
[9]
  GI50: 1.68 µM
  TGI: 3.47 µM

## C[C@]12CCC3c4ccc(O)cc4CCC3C1CC[C@@]2(O)CNC(=O)/C=C/c1ccc(O)c(O)c1 (stereo partly drawn)
[1]
  GI50: 12.1 µM
  TGI: 33.6 µM
[3]
  GI50: 3.03 µM
  TGI: 15.3 µM
[4]
  GI50: 2.89 µM
  TGI: 21.5 µM
[5]
  GI50: 10.6 µM
  TGI: 23.8 µM
[6]
  GI50: 25.1 µM
  TGI: 46.9 µM
[7]
  GI50: 4.33 µM
  TGI: 16.8 µM
[10]
  GI50: 3.5 µM
  TGI: 15.7 µM
[8]
  GI50: 26.4 µM
  TGI: 81.3 µM
[9]
  GI50: 3.29 µM
  TGI: 18.7 µM

## COc1ccc(C(NC(=O)C[C@@H](C(=O)N(C)C(C)C(=O)O)N(C)C(=O)[C@@H]2CCCN2C(=O)[C@H](C(C)C)N(C)C(=O)C(C(C)C)N(C)C(=O)[C@H](Cc2ccccc2)N(C)C(=O)C(NC(=O)OC(C)(C)C)C(C)C)c2ccc(OC)cc2)cc1 (stereo partly drawn) (Boc-[ξV][NMeF][ξNMeV][NMeV]P[NMeD](X3)[ξNMeA]-OH)
[1]
  GI50: 15.8 µM
  TGI: 23.8 µM and 29.2 µM
[2]
  GI50: 20.5 µM
  TGI: 37.5 µM and 37.9 µM
[3]
  TGI: 15.4 µM
[4]
  GI50: 18.2 µM
  TGI: 27.4 µM and 32.9 µM
[5]
  GI50: 17.5 µM
  TGI: 37.5 µM and 33 µM
[6]
  GI50: 17.3 µM
  TGI: > 37.5 µM and 31.5 µM
[7]
  GI50: 18.2 µM
  TGI: 37.5 µM and 33.3 µM
[10]
  GI50: 17.6 µM
  TGI: 37.5 µM and 31.5 µM
[8]
  GI50: 24.8 µM
  TGI: 37.5 µM and 64.5 µM
[9]
  TGI: 18.5 µM

## O=C(O)c1ccc2c(c1C(=O)O)C(=O)OC2(c1ccc(O)cc1)c1ccc(O)cc1
[1]
  TGI: > 100 µM
[2]
  TGI: > 100 µM
[3]
  TGI: > 100 µM
[4]
  TGI: > 100 µM
[5]
  TGI: > 100 µM
[6]
  TGI: > 100 µM
[7]
  TGI: > 100 µM
[10]
  TGI: > 100 µM
[8]
  TGI: > 100 µM
[9]
  TGI: > 100 µM

## CCN(Cc1ccc(F)cc1)c1cc(Cl)c(CO)c(Cl)c1
[1]
  GI50: 3.61 µM
  TGI: 18.1 µM
[2]
  GI50: 17.8 µM
  TGI: 36.1 µM
[3]
  GI50: 13.6 µM
  TGI: 28.3 µM
[4]
  GI50: 11.7 µM
  TGI: 24.3 µM
[5]
  GI50: 12.5 µM
  TGI: 26 µM
[6]
  GI50: 4.22 µM
  TGI: 17.7 µM
[7]
  GI50: 15.7 µM
  TGI: 36.6 µM
[10]
  GI50: 12.2 µM
  TGI: 25.4 µM
[8]
  GI50: 10.7 µM
  TGI: 22.5 µM
[9]
  GI50: 8.71 µM
  TGI: 21.6 µM

## COc1ccc(/C=N/NC(=O)c2cccc3cc[nH]c23)cc1O
[1]
  GI50: 18.5 µM
  TGI: > 74.6 µM
[2]
  GI50: 1.96 µM
  TGI: > 100 µM
[3]
  GI50: 12.2 µM
  TGI: > 78.8 µM
[4]
  GI50: 0.307 µM
  TGI: 1.89 µM
[5]
  GI50: 4.07 µM
  TGI: > 100 µM
[6]
  GI50: > 54.6 µM
  TGI: > 100 µM
[7]
  GI50: 0.615 µM
  TGI: > 46.1 µM
[10]
  GI50: 6.51 µM
  TGI: > 100 µM
[8]
  GI50: 10.3 µM
  TGI: > 100 µM
[9]
  GI50: 5.83 µM
  TGI: > 100 µM

## N#Cc1c[nH]n2c(N=Nc3ccc(Cl)cc3)c(O)nc12
[1]
  GI50: 13.1 µM
  TGI: 52.2 µM
[2]
  GI50: 41.6 µM
  TGI: > 100 µM
[3]
  GI50: 28.5 µM
  TGI: 77.6 µM
[4]
  GI50: 40.3 µM
  TGI: > 100 µM
[5]
  GI50: 33.8 µM
  TGI: > 100 µM
[6]
  GI50: 84.9 µM
  TGI: > 100 µM
[7]
  GI50: 22 µM
  TGI: 62.9 µM
[10]
  GI50: 32.3 µM
  TGI: > 100 µM
[8]
  GI50: 57.3 µM
  TGI: > 100 µM
[9]
  GI50: 29.7 µM
  TGI: > 100 µM

## CN(C)c1cc(NN=C(c2ccc(O)cc2)c2ccc(O)cc2)c([N+](=O)[O-])cc1[N+](=O)[O-]
[1]
  GI50: 10.2 µM
  TGI: 25.4 µM
[2]
  GI50: 13.7 µM
  TGI: 28 µM
[3]
  GI50: 6.32 µM
  TGI: 21.5 µM
[4]
  GI50: 2.53 µM
  TGI: 9.81 µM
[5]
  GI50: 9.4 µM
  TGI: 22.2 µM
[6]
  GI50: 17.2 µM
  TGI: 32.4 µM
[7]
  GI50: 4.02 µM
  TGI: 17.7 µM
[10]
  GI50: 5.32 µM
  TGI: 20.5 µM
[8]
  GI50: 5.77 µM
  TGI: 28 µM
[9]
  GI50: 11.3 µM
  TGI: 26.9 µM

## CC1(COc2ccc3c(c2)ncn3-c2ccc3cccc(N4CCC(N)CC4)c3n2)COC1
[1]
  GI50: 10.3 µM and 3.27 µM
  TGI: 25.7 µM and > 10 µM
[2]
  GI50: 3.23 µM and 1.86 µM
  TGI: 6.46 µM and 3.74 µM
[3]
  GI50: 2.8 µM and 2.64 µM
  TGI: 12.7 µM and 9.74 µM
[4]
  GI50: 2.35 µM and 2.99 µM
  TGI: 4.73 µM and > 10 µM
[5]
  GI50: 4.35 µM and 3.36 µM
  TGI: 13.2 µM and > 10 µM
[6]
  GI50: 3.26 µM and 2.57 µM
  TGI: 12.8 µM and > 10 µM
[7]
  GI50: 3.37 µM and 2.92 µM
  TGI: 12.3 µM and > 10 µM
[10]
  GI50: 1.78 µM and 0.822 µM
  TGI: 5.12 µM and 7.4 µM
[8]
  GI50: 2.89 µM and 3.53 µM
  TGI: 8.15 µM and > 10 µM
[9]
  GI50: 1.32 µM and 0.893 µM
  TGI: 3.3 µM and 2.71 µM

## O=S(=O)(c1ccccc1)N1CCN(S(=O)(=O)c2ccccc2)c2ccccc21
[1]
  TGI: > 100 µM
[2]
  TGI: > 100 µM
[3]
  TGI: > 100 µM
[4]
  TGI: > 100 µM
[5]
  TGI: > 100 µM
[6]
  TGI: > 100 µM
[7]
  TGI: > 100 µM
[10]
  TGI: > 100 µM
[8]
  TGI: > 100 µM
[9]
  TGI: > 100 µM

## COc1cc(-c2ccc3cc(OC)c(OC)c(OC)c3c2)cc(OC)c1OC
[1]
  GI50: 2.17 µM
  TGI: 14.1 µM
[2]
  GI50: 8.75 µM
  TGI: > 100 µM
[3]
  GI50: 30.1 µM
  TGI: > 100 µM
[4]
  GI50: > 100 µM
  TGI: > 100 µM
[5]
  GI50: 75.1 µM
  TGI: > 100 µM
[6]
  GI50: > 100 µM
  TGI: > 100 µM
[7]
  GI50: 6.03 µM
  TGI: > 100 µM
[8]
  GI50: > 100 µM
  TGI: > 100 µM
[9]
  GI50: 5.91 µM
  TGI: 44 µM

## O=C(/C=C/c1ccc(O)cc1)c1ccc(O)cc1
[1]
  TGI: 76 µM
[2]
  TGI: 70 µM
[3]
  TGI: > 75.3 µM
[4]
  TGI: 52.1 µM
[5]
  TGI: > 78.2 µM
[6]
  TGI: > 76.3 µM
[7]
  TGI: 57.5 µM
[10]
  TGI: 51.2 µM
[8]
  TGI: > 100 µM
[9]
  TGI: 50.1 µM

## CCOC(=O)C1=C(C)N(c2ccc(F)cc2F)[C@]2(C#N)C(O)=C(Cl)C(Cl)=C(O)[C@]12C#N
[1]
  GI50: 1.77 µM
  TGI: > 100 µM
[2]
  GI50: > 100 µM
  TGI: > 100 µM
[3]
  GI50: > 100 µM
  TGI: > 100 µM
[4]
  GI50: > 100 µM
  TGI: > 100 µM
[5]
  GI50: > 100 µM
  TGI: > 100 µM
[6]
  GI50: 20.5 µM
  TGI: > 100 µM
[7]
  GI50: > 100 µM
  TGI: > 100 µM
[10]
  GI50: > 100 µM
  TGI: > 100 µM
[8]
  GI50: > 100 µM
  TGI: > 100 µM
[9]
  GI50: > 100 µM
  TGI: > 100 µM
